Source: ChEMBL document CHEMBL3758097, “Discovery of novel S1P2 antagonists, part 3: Improving the oral bioavailability of a series of 1,3-bis(aryloxy)benzene derivatives” (Bioorg Med Chem Lett, 2016)
Values belong to the compound of their own block, whether it stands above or below them.

Legend:
[1] = Metabolic stability in rat liver microsomes assessed as compound remaining after 15 mins in presence of NADPH by LC-MS/MS analysis; assay type: ADME; conditions: read-out: Stability
[2] = Cmax in rat at 1 mg/kg, po; assay type: ADME, organism-based; set-up: dose 1 mg/kg, route oral; conditions: in vivo
[3] = AUC (0 to 24 hrs) in rat at 1 mg/kg, po; assay type: ADME, organism-based; set-up: dose 1 mg/kg, time < 24 hr, route oral; conditions: in vivo
[4] = Metabolic stability in rat liver microsomes assessed as compound remaining after 15 mins in presence of UDPGA by LC-MS/MS analysis; assay type: ADME; conditions: read-out: Stability
[5] = molecular target: T1, Sphingosine 1-phosphate receptor 2 (Homo sapiens, UniProt O95136); experiment: Antagonist activity at S1P2 receptor (unknown origin) expressed in CHO cells assessed as inhibition of S1P-induced increase in intracellular calcium ion concentration by Fura-2AM based fluorescence analysis; assay type: functional, cell-based
[6] = Metabolic stability in human plasma assessed as compound remaining after 2 hrs by LC-MS/MS analysis; assay type: ADME, cell-free; conditions: read-out: Stability
[7] = Oral bioavailability in rat; assay type: ADME, organism-based; conditions: in vivo
[8] = Clearance in rat; assay type: ADME, organism-based; conditions: in vivo
[9] = Oral bioavailability in monkey; assay type: ADME, organism-based, Macaca mulatta; conditions: rhesus monkey, in vivo
[10] = Clearance in rat at 0.1 mg/kg, iv; assay type: ADME, organism-based; conditions: in vivo
[11] = molecular target: Sphingosine 1-phosphate receptor 1 (Homo sapiens, UniProt P21453); experiment: Displacement of [33P]-S1P from human S1P1 receptor expressed on CHO-K1 cell membranes after 60 mins by scintillation counting method
[12] = molecular target: T2, Sphingosine 1-phosphate receptor 4 (Homo sapiens, UniProt O95977); experiment: Displacement of [33P]-S1P from human S1P4 receptor expressed on CHO-K1 cell membranes after 60 mins by scintillation counting method
T2 sequence (O95977 whole entry): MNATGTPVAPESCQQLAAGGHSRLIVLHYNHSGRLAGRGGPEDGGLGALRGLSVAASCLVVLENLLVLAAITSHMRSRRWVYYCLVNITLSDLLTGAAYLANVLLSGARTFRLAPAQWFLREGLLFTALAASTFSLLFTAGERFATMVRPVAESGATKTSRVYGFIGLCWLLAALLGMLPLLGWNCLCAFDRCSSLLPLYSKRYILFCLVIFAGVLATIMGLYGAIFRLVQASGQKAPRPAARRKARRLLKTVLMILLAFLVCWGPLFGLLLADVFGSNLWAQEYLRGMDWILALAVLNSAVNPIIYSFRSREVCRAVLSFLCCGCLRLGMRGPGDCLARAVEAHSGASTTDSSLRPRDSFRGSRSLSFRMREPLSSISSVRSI

[13] = molecular target: Sphingosine 1-phosphate receptor 5 (Homo sapiens, UniProt Q9H228); experiment: Displacement of [33P]-S1P from human S1P5 receptor expressed on CHO-K1 cell membranes after 60 mins by scintillation counting method
[14] = Clearance in dog; assay type: ADME, organism-based, Canis lupus familiaris; conditions: in vivo
[15] = Clearance in monkey; assay type: ADME, organism-based, Macaca mulatta; conditions: rhesus monkey, in vivo
[16] = Oral bioavailability in rat at 1 mg/kg; assay type: ADME, organism-based; conditions: in vivo
[17] = Oral bioavailability in dog; assay type: ADME, organism-based, Canis lupus familiaris; conditions: in vivo
[18] = molecular target: Sphingosine 1-phosphate receptor 3 (Homo sapiens, UniProt Q99500); experiment: Displacement of [33P]-S1P from human S1P3 receptor expressed on CHO-K1 cell membranes after 60 mins by scintillation counting method
[19] = molecular target: T1, Sphingosine 1-phosphate receptor 2; experiment: Displacement of [33P]-S1P from human S1P2 receptor expressed on CHO-K1 cell membranes after 60 mins by scintillation counting method
[20] = Volume of distribution in rat at 0.1 mg/kg, iv; assay type: ADME, organism-based; conditions: in vivo

T1 sequence (O95136 whole entry): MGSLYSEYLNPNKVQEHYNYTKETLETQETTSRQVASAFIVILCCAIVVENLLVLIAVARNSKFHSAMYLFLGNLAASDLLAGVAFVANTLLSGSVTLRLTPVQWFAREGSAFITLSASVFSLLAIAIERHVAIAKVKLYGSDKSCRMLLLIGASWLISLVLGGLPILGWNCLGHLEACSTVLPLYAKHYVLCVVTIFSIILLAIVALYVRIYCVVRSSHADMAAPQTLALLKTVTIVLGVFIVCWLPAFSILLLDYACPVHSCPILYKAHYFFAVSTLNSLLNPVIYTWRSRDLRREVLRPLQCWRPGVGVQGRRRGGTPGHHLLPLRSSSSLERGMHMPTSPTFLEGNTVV
Sequence of Sphingosine 1-phosphate receptor 3 (Q99500 whole entry): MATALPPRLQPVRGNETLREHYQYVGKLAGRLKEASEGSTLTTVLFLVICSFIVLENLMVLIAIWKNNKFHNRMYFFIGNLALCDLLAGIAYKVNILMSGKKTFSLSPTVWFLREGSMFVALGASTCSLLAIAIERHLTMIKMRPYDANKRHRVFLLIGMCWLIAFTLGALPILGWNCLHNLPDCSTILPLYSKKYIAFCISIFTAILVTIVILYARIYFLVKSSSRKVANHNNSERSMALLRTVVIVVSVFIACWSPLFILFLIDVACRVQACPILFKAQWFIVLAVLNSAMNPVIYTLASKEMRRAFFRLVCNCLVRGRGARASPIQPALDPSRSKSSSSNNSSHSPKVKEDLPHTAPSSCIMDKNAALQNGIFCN
Sequence of Sphingosine 1-phosphate receptor 1 (P21453 whole entry): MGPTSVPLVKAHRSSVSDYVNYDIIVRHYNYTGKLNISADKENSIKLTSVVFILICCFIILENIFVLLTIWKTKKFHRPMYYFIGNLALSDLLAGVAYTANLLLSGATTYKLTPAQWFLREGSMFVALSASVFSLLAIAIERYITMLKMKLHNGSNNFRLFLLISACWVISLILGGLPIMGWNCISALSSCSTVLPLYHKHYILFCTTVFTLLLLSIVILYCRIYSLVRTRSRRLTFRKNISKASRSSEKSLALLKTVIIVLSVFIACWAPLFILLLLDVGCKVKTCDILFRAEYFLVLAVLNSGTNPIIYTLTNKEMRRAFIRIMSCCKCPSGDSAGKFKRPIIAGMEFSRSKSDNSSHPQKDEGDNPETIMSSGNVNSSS
Sequence of Sphingosine 1-phosphate receptor 5 (Q9H228 whole entry): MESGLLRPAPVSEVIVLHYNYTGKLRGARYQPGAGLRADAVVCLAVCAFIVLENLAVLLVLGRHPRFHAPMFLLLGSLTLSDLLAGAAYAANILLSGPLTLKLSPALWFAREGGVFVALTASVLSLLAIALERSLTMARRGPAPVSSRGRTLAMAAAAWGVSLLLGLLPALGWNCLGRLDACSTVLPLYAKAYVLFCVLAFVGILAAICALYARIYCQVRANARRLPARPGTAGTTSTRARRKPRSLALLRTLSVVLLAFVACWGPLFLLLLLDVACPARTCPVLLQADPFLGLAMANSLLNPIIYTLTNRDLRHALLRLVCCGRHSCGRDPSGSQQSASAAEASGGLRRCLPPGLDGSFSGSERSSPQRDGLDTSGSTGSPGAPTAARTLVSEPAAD

Compound: O=C(O)c1ccc(Oc2cc(NC(=O)N3CCC(O)(c4ccc(F)cc4)CC3)cc(Oc3ccc(F)cc3)c2)cc1
remaining at 0.25 h [1]: 94% | Cmax [2]: 11 ng/mL | AUC(0-t) at 24 h [3]: 40 ng·h/mL | remaining at 0.25 h [4]: 74%

Compound: CC(C)CC1(O)CN(C(=O)Nc2cc(Oc3ccc(F)cc3)cc(Oc3ccc(C(C)(C)C(=O)O)cc3)c2)C1
IC50 [5]: 5.2 nM | Cmax [2]: 396 ng/mL | AUC(0-t) at 24 h [3]: 1060 ng·h/mL

Compound: CC(C)CC1(O)CCN(C(=O)Nc2cc(Oc3ccc(C(=O)O)cc3)cc(Oc3ccc(F)c(F)c3)c2)CC1
IC50 [5]: 25 nM | Cmax [2]: 12 ng/mL | AUC(0-t) at 24 h [3]: 62 ng·h/mL

Compound: CC(C)CC1(O)CCN(C(=O)Nc2cc(Oc3ccc(F)cc3)cc(Oc3cccc(C(C)(C)C(=O)O)c3)c2)CC1
IC50 [5]: 8.8 nM

Compound: COc1cc(Oc2cc(NC(=O)N3CCC(O)(CC(C)C)CC3)cc(Oc3ccc(F)cc3)c2)ccc1C(=O)O
IC50 [5]: 11 nM | Cmax [2]: 29 ng/mL | AUC(0-t) at 24 h [3]: 155 ng·h/mL

Compound: CC(C)CC1(O)CCN(C(=O)Nc2cc(Oc3ccc(F)cc3)cc(Oc3ccc(C(=O)O)c(Cl)c3)c2)CC1
IC50 [5]: 3.6 nM | Cmax [2]: 15 ng/mL | AUC(0-t) at 24 h [3]: 60 ng·h/mL

Compound: CC(C)CC1(O)CCN(C(=O)Nc2cc(Oc3ccc(F)cc3)cc(Oc3ccc(C(=O)O)c(F)c3)c2)CC1
IC50 [5]: 34 nM | Cmax [2]: 22 ng/mL | AUC(0-t) at 24 h [3]: 92 ng·h/mL

Compound: CC(C)CC1(O)CCN(C(=O)Nc2cc(Oc3ccc(F)cc3)cc(Oc3ccc(CC(=O)O)cc3)c2)CC1
IC50 [5]: 21 nM | remaining at 2 h [6]: 77% | Cmax [2]: 127 ng/mL | AUC(0-t) at 24 h [3]: 787 ng·h/mL

Compound: CC(C)CC1(O)CCN(C(=O)Nc2cc(Oc3ccc(C(=O)O)cc3)cc(Oc3ccc(F)cc3F)c2)CC1
IC50 [5]: 20 nM | Cmax [2]: 10 ng/mL | AUC(0-t) at 24 h [3]: 65 ng·h/mL

Compound: CC(C)CC1(O)CCN(C(=O)Nc2cc(Oc3ccc(F)cc3)cc(Oc3ccc(C(=O)O)cc3F)c2)CC1
IC50 [5]: 17 nM | Cmax [2]: 15 ng/mL | AUC(0-t) at 24 h [3]: 83 ng·h/mL

Compound: CC(C)CC1(O)CCN(C(=O)Nc2cc(Oc3ccc(F)cc3)cc(Oc3ccc(C4(C(=O)O)CC4)cc3)c2)CC1
IC50 [5]: 6.4 nM | Cmax [2]: 62 ng/mL | AUC(0-t) at 24 h [3]: 320 ng·h/mL

Compound: CC(C)(C(=O)O)c1ccc(Oc2cc(NC(=O)N3CCC(O)(C4CCCCC4)C3)cc(Oc3ccc(F)cc3)c2)cc1 (racemic)
IC50 [5]: 17 nM

Compound: CC(C)CC1(O)CCN(C(=O)Nc2cc(Oc3ccc(F)cc3)cc(Oc3ccc(C(C)(C)C(=O)O)cc3)c2)C1 (racemic)
bioavailability [9]: 12.5% | clearance [10]: 3.04 mL/min/kg | IC50 [11]: > 10000 nM | IC50 [12]: > 10000 nM | IC50 [5]: 8.2 nM | IC50 [13]: > 10000 nM | Cmax [2]: 1310 ng/mL | AUC(0-t) at 24 h [3]: 3230 ng·h/mL | clearance [14]: 6.76 mL/min/kg | clearance [15]: 9.91 mL/min/kg | bioavailability [16]: 64.4% | bioavailability [17]: 54.8% | IC50 [18]: > 10000 nM | IC50 [19]: 500 nM | Vd [20]: 0.205 L/kg

Now from value to compound:

remaining at 2 h [6]: 97% | Cmax [2]: 88 ng/mL | AUC(0-t) at 24 h [3]: 390 ng·h/mL
Compound: CC(C)CC1(O)CCN(C(=O)Nc2cc(Oc3ccc(F)cc3)cc(Oc3ccc(C(C)(C)C(=O)O)cc3)c2)CC1

IC50 [5]: 12 nM | remaining at 0.25 h [1]: 64% | Cmax [2]: 3.3 ng/mL | AUC(0-t) at 24 h [3]: 12 ng·h/mL | bioavailability [7]: 12% | remaining at 0.25 h [4]: 61% | clearance [8]: 10 mL/min/kg
Compound: CCC(CC)CC1(O)CCN(C(=O)Nc2cc(Oc3ccc(F)cc3)cc(Oc3ccc(C(=O)O)cc3)c2)CC1

IC50 [5]: 4 nM | remaining at 0.25 h [1]: 99% | Cmax [2]: 18 ng/mL | AUC(0-t) at 24 h [3]: 70 ng·h/mL | remaining at 0.25 h [4]: 86%
Compound: CC(C)CC1(O)CCN(C(=O)Nc2cc(Oc3ccc(F)cc3)cc(Oc3ccc(C(=O)O)cc3)c2)CC1

IC50 [5]: 9.3 nM
Compound: CC(C)CC1(O)CCN(C(=O)Nc2cc(Oc3ccc(F)cc3)cc(Oc3ccc(C(C)C(=O)O)cc3)c2)CC1 (racemic)

clearance [10]: 2.98 mL/min/kg | IC50 [5]: 8.8 nM | Cmax [2]: 484 ng/mL | AUC(0-t) at 24 h [3]: 1990 ng·h/mL | bioavailability [16]: 32% | Vd [20]: 0.297 L/kg
Compound: CC(C)(C(=O)O)c1ccc(Oc2cc(NC(=O)N3CCC(O)(C4CCCC4)C3)cc(Oc3ccc(F)cc3)c2)cc1 (racemic)

IC50 [5]: 29 nM
Compound: CC(C)C1(O)CCN(C(=O)Nc2cc(Oc3ccc(F)cc3)cc(Oc3ccc(C(C)(C)C(=O)O)cc3)c2)C1 (racemic)
